The source of these data is US20040171680A1, “Treating Syndrome X with substituted tetralins and indanes” (priority 2002, published 2004).

The test addresses T1, PPARα (Rattus norvegicus, UniProt P37230).
T1 construct: H4IIE rat hepatoma cell line was obtained from ATCC; host or cells: H4IIE rat hepatoma cells
T1 sequence (P37230 1-468): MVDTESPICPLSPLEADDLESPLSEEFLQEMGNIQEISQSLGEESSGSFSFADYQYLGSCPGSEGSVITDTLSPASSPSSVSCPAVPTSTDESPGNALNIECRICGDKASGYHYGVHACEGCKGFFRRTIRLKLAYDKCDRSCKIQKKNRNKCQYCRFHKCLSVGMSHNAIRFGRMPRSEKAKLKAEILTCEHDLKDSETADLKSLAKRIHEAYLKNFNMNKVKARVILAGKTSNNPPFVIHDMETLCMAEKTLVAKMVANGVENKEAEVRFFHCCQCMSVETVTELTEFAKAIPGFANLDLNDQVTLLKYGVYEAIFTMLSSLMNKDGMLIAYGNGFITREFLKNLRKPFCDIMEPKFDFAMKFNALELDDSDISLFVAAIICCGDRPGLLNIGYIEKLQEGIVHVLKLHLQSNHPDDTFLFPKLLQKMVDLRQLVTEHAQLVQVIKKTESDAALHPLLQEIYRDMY
In words: HD bDNA Assay (HD gene induction). In kind it is cell-based. The conditions noted are these: in section F; target not named there, values match the PPARα column; read-out: EC50. The essentials: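 H4IIE rat hepatoma cells (~100,000/well) treated 24 hours at 37° C in low-serum medium (5% charcoal/dextran-treated calf serum) with compounds. HD mRNA quantified by branched DNA luminescence assay; EC50's from sigmoidal non-linear regression.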

Structures are written as SMILES.

For orientation: EC50 means the midpoint of the concentration-response curve. For `CCN(C(=O)Nc1ccc(OC(F)(F)F)cc1)C1CCc2cc(SC(C)(C)C(=O)O)c(F)cc2C1` (stereo not shown) [Example 50, 2-{6-[1-Ethyl-3-(4-trifluoromethoxyphenyl)ureido]-3-fluoro-5,6,7,8-tetrahydronaphthalen-2-ylsulfanyl}-2-methylpropionic acid], the EC50 was 0.01 µM.
